Patent publication US9475815B2, “Substituted benzothienyl-pyrrolotriazines and uses thereof” (Bayer Intellectual Property GmbH, priority 2012, dated 2016)
Where a name gives a salt, the structure may show the parent alone.

Columns and labels:
human mTOR = human mTOR (Homo sapiens (Human), UniProt P42345); assay: mTOR kinase assay (TR-FRET, for comparative purposes); type: biochemical; conditions: for inhibition at 1 µM: read-out: mTOR % inhibition @ 1 μM, 1 μM test compound, 40 μM ATP, mean values; for mTOR % inhibition @ 1 μM: 1 μM test compound, 40 μM ATP, mean values
Sequence of human mTOR (P42345 1360-2549): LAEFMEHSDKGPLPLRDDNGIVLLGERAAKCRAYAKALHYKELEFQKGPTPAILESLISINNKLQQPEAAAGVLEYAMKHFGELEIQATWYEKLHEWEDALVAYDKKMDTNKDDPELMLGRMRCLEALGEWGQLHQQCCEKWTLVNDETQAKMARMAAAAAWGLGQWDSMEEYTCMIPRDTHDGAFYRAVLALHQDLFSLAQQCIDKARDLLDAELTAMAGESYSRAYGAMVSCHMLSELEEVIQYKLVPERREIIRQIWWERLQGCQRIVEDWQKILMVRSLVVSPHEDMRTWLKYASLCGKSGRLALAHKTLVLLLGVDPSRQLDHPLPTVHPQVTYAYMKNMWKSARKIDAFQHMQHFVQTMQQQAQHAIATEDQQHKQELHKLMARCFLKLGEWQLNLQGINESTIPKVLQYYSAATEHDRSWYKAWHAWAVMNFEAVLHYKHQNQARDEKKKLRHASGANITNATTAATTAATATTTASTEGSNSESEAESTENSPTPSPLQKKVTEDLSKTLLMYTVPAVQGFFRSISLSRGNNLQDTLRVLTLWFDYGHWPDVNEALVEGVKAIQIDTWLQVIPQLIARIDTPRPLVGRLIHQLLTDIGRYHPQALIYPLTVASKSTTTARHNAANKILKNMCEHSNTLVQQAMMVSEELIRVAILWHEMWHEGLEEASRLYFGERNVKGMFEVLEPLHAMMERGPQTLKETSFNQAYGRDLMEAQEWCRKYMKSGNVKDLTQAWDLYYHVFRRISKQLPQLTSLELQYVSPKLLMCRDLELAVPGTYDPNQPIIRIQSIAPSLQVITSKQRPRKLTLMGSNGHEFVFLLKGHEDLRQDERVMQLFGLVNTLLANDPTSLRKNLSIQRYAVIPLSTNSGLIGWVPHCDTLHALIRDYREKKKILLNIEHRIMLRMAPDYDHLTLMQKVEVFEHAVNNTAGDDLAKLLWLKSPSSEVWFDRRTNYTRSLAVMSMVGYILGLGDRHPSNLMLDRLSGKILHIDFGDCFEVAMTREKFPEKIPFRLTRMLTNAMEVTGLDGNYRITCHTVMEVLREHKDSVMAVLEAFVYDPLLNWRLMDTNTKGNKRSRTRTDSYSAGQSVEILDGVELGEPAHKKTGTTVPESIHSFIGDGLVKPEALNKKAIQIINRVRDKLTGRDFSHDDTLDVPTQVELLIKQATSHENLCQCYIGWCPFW
Protocol: mTOR inhibitory activity of the compounds of the present invention was quantified employing the TR-FRET based mTOR assay as described in the following paragraphs:
Test compounds were dissolved in DMSO to generate 10 mM stock solutions. These solutions were first 10-fold diluted by 100% DMSO to get 1 mM solutions in 100% DMSO, then 100-fold diluted by 50% DMSO to get 10 μM solutions in 50% DMSO.
(final concentration in the 10 μl assay volume=1 nM) in FRET buffer.
For this, the fluorescence emissions at 495 nm and 520 nm after excitation at 340 nm was measured in an Envision 2104 multilabel reader (Perkin-Elmer).

human FGFR-1 = human FGFR-1 (Homo sapiens, UniProt P11362); assay: FGFR-1 high ATP kinase assay (TR-FRET)
Sequence of human FGFR-1 (P11362 22-822 limits assumed): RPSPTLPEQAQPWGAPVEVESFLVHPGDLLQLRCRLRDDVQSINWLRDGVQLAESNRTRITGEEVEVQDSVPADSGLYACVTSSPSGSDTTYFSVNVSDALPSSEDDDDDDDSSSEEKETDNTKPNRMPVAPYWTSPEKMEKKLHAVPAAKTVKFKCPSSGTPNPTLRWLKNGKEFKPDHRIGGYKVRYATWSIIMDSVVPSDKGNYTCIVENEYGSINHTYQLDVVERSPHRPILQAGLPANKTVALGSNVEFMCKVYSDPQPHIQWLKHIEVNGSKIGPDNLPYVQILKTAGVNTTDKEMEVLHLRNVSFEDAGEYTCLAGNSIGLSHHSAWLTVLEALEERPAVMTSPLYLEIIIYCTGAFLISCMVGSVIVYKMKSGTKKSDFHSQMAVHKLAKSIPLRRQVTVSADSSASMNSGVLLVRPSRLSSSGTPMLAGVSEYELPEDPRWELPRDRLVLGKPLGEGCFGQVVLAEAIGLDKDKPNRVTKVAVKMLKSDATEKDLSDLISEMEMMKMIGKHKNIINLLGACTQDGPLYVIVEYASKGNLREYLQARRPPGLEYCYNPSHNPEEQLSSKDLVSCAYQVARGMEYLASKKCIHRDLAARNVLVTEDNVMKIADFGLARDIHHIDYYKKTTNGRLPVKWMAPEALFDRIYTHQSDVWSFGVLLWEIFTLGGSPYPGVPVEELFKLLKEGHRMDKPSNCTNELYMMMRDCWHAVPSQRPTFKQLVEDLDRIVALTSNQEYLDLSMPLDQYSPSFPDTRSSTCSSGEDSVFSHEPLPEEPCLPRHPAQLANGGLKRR

human FGFR-3 = human FGFR-3 (Homo sapiens (Human), UniProt P22607); assay: FGFR-3 kinase assay (TR-FRET); type: biochemical; conditions: 10 μM ATP, 15 min pre-incubation with enzyme
Sequence of human FGFR-3 (P22607 397-806): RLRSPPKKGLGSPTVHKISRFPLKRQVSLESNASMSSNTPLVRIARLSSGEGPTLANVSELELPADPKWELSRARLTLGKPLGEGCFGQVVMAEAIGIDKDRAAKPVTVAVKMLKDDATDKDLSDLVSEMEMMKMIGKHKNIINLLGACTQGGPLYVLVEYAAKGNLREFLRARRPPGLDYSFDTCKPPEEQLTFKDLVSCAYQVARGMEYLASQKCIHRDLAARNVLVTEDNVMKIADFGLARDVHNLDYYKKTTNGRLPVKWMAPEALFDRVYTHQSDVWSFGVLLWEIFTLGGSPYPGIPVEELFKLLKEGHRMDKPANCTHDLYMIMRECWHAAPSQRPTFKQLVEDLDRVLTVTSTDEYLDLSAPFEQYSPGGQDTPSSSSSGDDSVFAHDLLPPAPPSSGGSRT

| SMILES | inhibition at 1 µM (human mTOR) [%] | IC50 (human FGFR-1) [nM] | IC50 (human FGFR-3) [nM] | mTOR % inhibition @ 1 μM (human mTOR) |
| --- | --- | --- | --- | --- |
| COc1cc(C)cc2cc(-c3cc(CN4CCC(N5CCCC5)C4)n4ncnc(N)c34)sc12 (stereo not drawn) [Example 60] | 11.3 | 39.6 | 58.6 |  |
| COc1cc(C)cc2cc(-c3cc(CNCC4CCN(C)CC4)n4ncnc(N)c34)sc12 [Example 61] | 8.6 | 39.7 | 43.5 |  |
| COc1cc(C)cc2cc(-c3cc(CN4CCN(CC(N)=O)CC4)n4ncnc(N)c34)sc12 [Example 64] | 28.2 | 48.9 | 56.4 |  |
| COc1cc(C)cc2cc(-c3cc(CNCCC4CCCN4C)n4ncnc(N)c34)sc12 (stereo not drawn) [Example 65] | 5.9 | 49.1 | 49.5 |  |
| COc1cc(C)cc2cc(-c3cc(CN4CC(N(C)C)C4)n4ncnc(N)c34)sc12 [Example 66] | 5.9 | 49.6 | 67.2 |  |
| COc1cc(C)cc2cc(-c3cc(CN(C)CCC(N)=O)n4ncnc(N)c34)sc12 [Example 67] | 48 | 53.1 | 28.4 |  |
| COc1cc(C)cc2cc(-c3cc(CN4CCN(C(N)=O)CC4)n4ncnc(N)c34)sc12 [Example 68] | 43.1 | 55 | 29.3 |  |
| COc1cc(C)cc2cc(-c3cc(CNC4CCN(C)CC4)n4ncnc(N)c34)sc12 [Example 69] | 4.6 | 59.5 | 59.9 |  |
| COc1cc(C)cc2cc(-c3cc(CN4CCCC(O)C4)n4ncnc(N)c34)sc12 (stereo not drawn) [Example 70] | 27.9 | 62 | 57.7 |  |
| COc1cc(C)cc2cc(-c3cc(CN4CC(N5CCCC5)C4)n4ncnc(N)c34)sc12 [Example 71] | 21.5 | 63.4 | 79.3 |  |
| COc1cc(C)cc2cc(-c3cc(CNCCO)n4ncnc(N)c34)sc12 [Example 72] |  | 65 | 47.2 | no inhib. effect detect. |
| COc1cc(C)cc2cc(-c3cc(CN4CCC(CO)CC4)n4ncnc(N)c34)sc12 [Example 73] | 17.2 | 66.6 | 64.8 |  |
| COc1cc(C)cc2cc(-c3cc(CN(C)C4CCS(=O)(=O)C4)n4ncnc(N)c34)sc12 (stereo not drawn) [Example 74] | 46.9 | 68.3 | 87.1 |  |
| COc1cc(C)cc2cc(-c3cc(CNCC(C)(C)N4CCOCC4)n4ncnc(N)c34)sc12 [Example 75] | 18.6 | 74.3 | 115 |  |
| COCCN(C)Cc1cc(-c2cc3cc(C)cc(OC)c3s2)c2c(N)ncnn12 [Example 76] | 29.9 | 83 | 73.7 |  |
| CCN(Cc1cc(-c2cc3cc(C)cc(OC)c3s2)c2c(N)ncnn12)C(C)CO (stereo not drawn) [Example 77] | 20.2 | 84.1 | 82.3 |  |
| COc1cc(C)cc2cc(-c3cc(CNC4CCS(=O)(=O)C4)n4ncnc(N)c34)sc12 (stereo not drawn) [Example 78] | 35.6 | 86.6 | 95.8 |  |
| COc1cc(C)cc2cc(-c3cc(CN4CCCC4c4ccc(C)cc4)n4ncnc(N)c34)sc12 (stereo not drawn) [Example 79] | 16.7 | 93 | 48.6 |  |
| COc1cc(C)cc2cc(-c3cc(CNC4CCN(C(C)C)CC4)n4ncnc(N)c34)sc12 [Example 80] | 3 | 93.4 | 120 |  |
| COc1cc(C)cc2cc(-c3cc(CNC4CC4)n4ncnc(N)c34)sc12 [Example 81] | 44.7 | 93.4 | 110 |  |
| COc1cc(C)cc2cc(-c3cc(CN4CCC(OC)CC4)n4ncnc(N)c34)sc12 [Example 82] | 18.7 | 97.3 | 71.9 |  |
| COc1cc(C)cc2cc(-c3cc(CNC4CCCC4O)n4ncnc(N)c34)sc12 (stereo not drawn) [Example 83] | 18.3 | 98.6 | 97.9 |  |
| COc1cc(C)cc2cc(-c3cc(CN4CC[C@@H](O)C4)n4ncnc(N)c34)sc12 [Example 84] | 15.3 | 38.9 | 39.1 |  |
| COc1cc(C)cc2cc(-c3cc(CN[C@@H](C)C(N)=O)n4ncnc(N)c34)sc12 [Example 85] | 28.2 | 45.4 | 22.1 |  |
| COc1cc(C)cc2cc(-c3cc(CN[C@H]4CC[C@@H](N(C)C)CC4)n4ncnc(N)c34)sc12 [Example 87] | 21.9 | 13.2 | 29.1 |  |

| SMILES | inhibition at 1 µM (human mTOR) [%] | IC50 (human FGFR-1) [nM] | IC50 (human FGFR-3) [nM] | mTOR % inhibition @ 1 μM (human mTOR) |
| --- | --- | --- | --- | --- |
| COc1cc(C)cc2cc(-c3cc(CN4CCC(O)CC4)n4ncnc(N)c34)sc12 [Example 88] | 29.5 | 15.7 | 21.3 |  |
| COc1cc(C)cc2cc(-c3cc(CN4CCCN(C)CC4)n4ncnc(N)c34)sc12 [Example 89] | 28.7 | 24.9 | 28.2 |  |
| COc1cc(C)cc2cc(-c3cc(CN4CC[C@@H](N(C)C)C4)n4ncnc(N)c34)sc12 [Example 90] | 22.7 | 26 | 30.3 |  |
| COc1cc(C)cc2cc(-c3cc(CN4CC(O)C4)n4ncnc(N)c34)sc12 [Example 91] | 17.7 | 36.9 | 23.9 |  |
| COc1cc(C)cc2cc(-c3cc(CN[C@@H](CC(N)=O)C(=O)O)n4ncnc(N)c34)sc12 [Example 92] | 19.9 | 46.2 | 11.7 |  |
| COc1cc(C)cc2cc(-c3cc(C(=O)N4CC[C@](C)(N)C4)n4ncnc(N)c34)sc12 [Example 97, [4-Amino-5-(7-methoxy-5-methyl-1-benzothiophen-2-yl)pyrrolo[2,1-f][1,2,4]triazin-7-yl][(3S)-3-amino-3-methylpyrrolidin-1-yl]methanone dihydrochloride] | 16.7 | 4.7 | 9.9 |  |
| COc1cc(C)cc2cc(-c3cc(C(=O)N4CCC(N(C)C)C4)n4ncnc(N)c34)sc12 (stereo not drawn) [Example 100] | 15.9 | 20.7 | 35.9 |  |
| COc1cc(C)cc2cc(-c3cc(C(=O)N4CCC(O)CC4)n4ncnc(N)c34)sc12 [Example 101] | 24.9 | 29.8 | 29.1 |  |
| COc1cc(C)cc2cc(-c3cc(C(=O)N4CCNC(C(N)=O)C4)n4ncnc(N)c34)sc12 (stereo not drawn) [Example 102] | 12.8 | 48.8 | 89.6 |  |
| COc1cc(C)cc2cc(-c3cc(C(=O)N4CCNC(C)(C)C4)n4ncnc(N)c34)sc12 [Example 103] | 9.2 | 51.7 | 114 |  |
| COc1cc(C)cc2cc(-c3cc(C(=O)N4CCC[C@@H](N)C4)n4ncnc(N)c34)sc12 [Example 104] | 17.9 | 28.1 | 14.6 |  |
| COc1cc(C)cc2cc(-c3cc(COCCN4CCCC4)n4ncnc(N)c34)sc12 [Example 107, 5-(7-Methoxy-5-methyl-1-benzothiophen-2-yl)-7-{[2-(pyrrolidin-1-yl)ethoxy]methyl}pyrrolo-[2,1-f][1,2,4]triazin-4-amine hydrochloride] | 15 | 57.3 | 46.1 |  |
| COc1cc(C)cc2cc(-c3cc(COC[C@@H]4CCCN4)n4ncnc(N)c34)sc12 [Example 109] |  | 65.6 | 37.1 | no inhib. effect detect. |
| COc1cc(C)cc2cc(-c3cc(COC[C@H]4CCCN4)n4ncnc(N)c34)sc12 [Example 110] | 4.9 | 51.6 | 57.4 |  |
| COc1cc(C)cc2cc(-c3cc(COC[C@H](C)N)n4ncnc(N)c34)sc12 [Example 111] | 1.1 | 82.2 | 85.6 |  |
| CCC(N)COCc1cc(-c2cc3cc(C)cc(OC)c3s2)c2c(N)ncnn12 (stereo not drawn) [Example 112] | 8.8 | 67.2 | 102 |  |
| COc1cc(C)cc2cc(-c3cc(COC4CCOC4)n4ncnc(N)c34)sc12 (stereo not drawn) [Example 113] | 29.7 | 83.1 | 64.7 |  |
| CCNC(=O)COCc1cc(-c2cc3cc(C)cc(OC)c3s2)c2c(N)ncnn12 [Example 114] | 27.7 | 65.3 | 30.5 |  |
| COc1cc(C)cc2cc(-c3cc(COCCNC(C)C)n4ncnc(N)c34)sc12 [Example 115] | 6.5 | 78.6 | 63.9 |  |
| COc1cc(C)cc2cc(-c3cc(COCCN4CCOC4=O)n4ncnc(N)c34)sc12 [Example 116] | 28 | 90.3 | 71.5 |  |
| CNCCOCc1cc(-c2cc3cc(C)cc(OC)c3s2)c2c(N)ncnn12 [Example 117] | 0.3 | 36.1 | 34.8 |  |
| COc1cc(C)cc2cc(-c3cc(CO[C@@H]4CCNC4)n4ncnc(N)c34)sc12 [Example 118] | 18.4 | 26.1 | 45 |  |
| COc1cc(C)cc2cc(-c3cc(COCC(C)N)n4ncnc(N)c34)sc12 (stereo not drawn) [Example 119] | 25.1 | 26.7 | 29.7 |  |
| COc1cc(C)cc2cc(-c3cc(COCCN)n4ncnc(N)c34)sc12 [Example 120] | 14.8 | 50.8 | 53.9 |  |
| CCCc1nccn1Cc1cc(-c2cc3cc(C)cc(OC)c3s2)c2c(N)ncnn12 [Example 121] | 26.8 | 33.3 | 65.9 |  |
